This passage reports IC50 results from patent publication US20260167623A1 (NIKANG THERAPEUTICS, INC., priority 2022, published 2026).

SMILES strings stand for the structures.

In the assay the target is T1, CDK2 (Homo sapiens, UniProt P24941).
T1 construct: High-Throughput Measurement of Cellular Endogenous CDK2; endogenous in cells; host or cells: OVCAR3
Put plainly: Inhibition of CDK2: phospho-Rb (S807/811) HTRF measurement in OVCAR3 cells, 24 h. In kind it is cell-based. Conditions: 24 h compound treatment, read-out: pRB_OVCAR3_24h. In short, it runs like this:
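IC50 came from a four-parameter fit of DMSO-normalized TR-FRET ratios (665/620 nm) reporting phospho-Rb S807/811. Lysates were taken from OVCAR3 cultures treated 24 h with compound (0.3 to 10,000 nM) and incubated 4 h at room temperature with the antibody pair.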
Background: Time-resolved FRET reads energy transfer from a long-lived donor to a nearby acceptor.
`O=C1CCN(c2ccc(N3CCN(CC4CCN(c5cccc(S(=O)(=O)N6CCC(Nc7ncc(C(F)(F)F)cn7)CC6)c5)CC4)CC3)cc2)C(=O)N1` [Example 113, 1-(4-(4-((1-(3-((4-((5-(trifluoromethyl)-pyrimidin-2-yl)amino)piperidin-1-yl)sulfonyl)phenyl)piperidin-4-yl)methyl)piperazin-1-yl)phenyl)-dihydropyrimidine-2,4(1H,3H)-dione]: the IC50 is 100 to 500 nM. Turning to `Cn1nc(N2CCC(=O)NC2=O)c2ccc(N3CC4CCC(C3)N4CC3CCN(c4cccc(S(=O)(=O)N5CCC(Nc6ncc(Cl)cn6)CC5)c4)CC3)cc21` [Example 114, 1-(6-(8-((1-(3-((4-((5-chloropyrimidin-2-yl)amino)piperidin-1-yl)sulfonyl)phenyl)-piperidin-4-yl)methyl)-3,8-diaza-bicyclo[3.2.1]octan-3-yl)-1-methyl-1H-indazol-3-yl)dihydropyrimidine-2,4(1H,3H)-dione], the IC50 lay within 100 to 500 nM. Turning to `C[C@H]1CN(CC2CCN(c3cccc(S(=O)(=O)N4CCC(Nc5ncc(Cl)cn5)CC4)c3)CC2)CCN1c1ccc2c(N3CCC(=O)NC3=O)nn(C)c2c1` [Example 117, (S)-1-(6-(4-((1-(3-((4-((5-chloropyrimidin-2-yl)amino)piperidin-1-yl)sulfonyl)phenyl)-piperidin-4-yl)methyl)-2-methylpiperazin-1-yl)-1-methyl-1H-indazol-3-yl)dihydro-pyrimidine-2,4(1H,3H)-dione], the IC50 was 100 to 500 nM. For the compound `Cn1nc(N2CCC(=O)NC2=O)c2ccc(C3CN(CC4CCN(c5cccc(S(=O)(=O)N6CCC(Nc7ncc(C(F)(F)F)cn7)CC6)c5)CC4)C3)cc21` [Example 118, 1-(1-methyl-6-(1-((1-(3-((4-((5-(trifluoro-methyl)pyrimidin-2-yl)amino)piperidin-1-yl)sulfonyl)phenyl)piperidin-4-yl)methyl)-azetidin-3-yl)-1H-indazol-3-yl)dihydropyrimidine-2,4(1H,3H)-dione], the IC50 lay in the range of 1 to 100 nM. The same measure for `O=C1CCC(N2Cc3cc(C4CCN(CC5CCN(c6cccc(S(=O)(=O)N7CCC(Nc8ncc(Cl)cn8)CC7)c6)CC5)CC4)c(F)cc3C2=O)C(=O)N1` (stereo not drawn) [Example 120, 3-(5-(1-((1-(3-((4-((5-chloropyrimidin-2-yl)amino)piperidin-1-yl)sulfonyl)phenyl)-piperidin-4-yl)methyl)piperidin-4-yl)-6-fluoro-1-oxoisoindolin-2-yl)piperidine-2,6-dione]: 100 to 500 nM; for `Cn1c(=O)n(C2CCC(=O)NC2=O)c2cccc(C3CCN(CC4CCN(c5cccc(S(=O)(=O)N6CCC(Nc7ncc(OC(F)F)cn7)CC6)c5)CC4)CC3)c21` (stereo not drawn) [Example 121, 3-(4-(1-((1-(3-((4-((5-(difluoromethoxy)-pyrimidin-2-yl)amino)piperidin-1-yl)sulfonyl)phenyl)piperidin-4-yl)methyl)-piperidin-4-yl)-3-methyl-2-oxo-2,3-dihydro-1H-benzo[d]imidazol-1-yl)piperidine-2,6-dione]: 1 to 100 nM; for `Cn1nc(N2CCC(=O)NC2=O)c2ccc(C3CCN(Cc4ccc(-c5cccc(S(=O)(=O)N6CCC(Nc7ncc(Cl)cn7)CC6)c5)cc4)CC3)cc21` [Example 122]: 1 to 100 nM. On to `Cn1nc(N2CCC(=O)NC2=O)c2ccc(C3CCN(CCOc4cccc(S(=O)(=O)N5CCC(Nc6ncc(C(F)(F)F)cn6)CC5)c4)CC3)cc21` [Example 123, 1-(1-methyl-6-(1-(2-(3-((4-((5-(trifluoro-methyl)pyrimidin-2-yl)amino)piperidin-1-yl)sulfonyl)phenoxy)ethyl)piperidin-4-yl)-1H-indazol-3-yl)dihydropyrimidine-2,4(1H,3H)-dione], for which the IC50 lay in the range of 1 to 100 nM. Regarding `Cn1nc(N2CCC(=O)NC2=O)c2ccc(C3CCN(CCOc4cccc(S(=O)(=O)N5CCC(Nc6ncc(Cl)cn6)CC5)c4)CC3)cc21` [Example 124, 1-(6-(1-(2-(3-((4-((5-chloropyrimidin-2-yl)amino)piperidin-1-yl)sulfonyl)phenoxy)-ethyl)piperidin-4-yl)-1-methyl-1H-indazol-3-yl)dihydropyrimidine-2,4(1H,3H)-dione], the IC50 was in the range of 1 to 100 nM. With `Cn1nc(N2CCC(=O)NC2=O)c2ccc(N3CC4CC(C3)N4CC3CCN(c4cccc(S(=O)(=O)N5CCC(Nc6ncc(Cl)cn6)CC5)c4)CC3)cc21` [Example 125, 1-(6-(6-((1-(3-((4-((5-chloropyrimidin-2-yl)amino)piperidin-1-yl)sulfonyl)phenyl)-piperidin-4-yl)methyl)-3,6-diazabicyclo-[3.1.1]heptan-3-yl)-1-methyl-1H-indazol-3-yl)dihydropyrimidine-2,4(1H,3H)-dione], the IC50 is 500 to 2500 nM. Consider `Cn1nc(N2CCC(=O)NC2=O)c2ccc(N3CC4CC(C3)N4CC3CCN(c4cccc(S(=O)(=O)N5CCC(Nc6ncc(C(F)(F)F)cn6)CC5)c4)CC3)cc21` [Example 126, 1-(1-methyl-6-(6-((1-(3-((4-((5-(trifluoro-methyl)pyrimidin-2-yl)amino)piperidin-1-yl)sulfonyl)phenyl)piperidin-4-yl)methyl)-3,6-diazabicyclo[3.1.1]heptan-3-yl)-1H-indazol-3-yl)dihydropyrimidine-2,4(1H,3H)-dione], for which the IC50 fell in the range of 500 to 2500 nM. For the compound `C[C@@H]1CN(CC2CCN(c3cccc(S(=O)(=O)N4CCC(Nc5ncc(Cl)cn5)CC4)c3)CC2)C[C@H](C)N1c1ccc2c(N3CCC(=O)NC3=O)nn(C)c2c1` [Example 127, 1-(6-((2S,6R)-4-((1-(3-((4-((5-chloro-pyrimidin-2-yl)amino)piperidin-1-yl)-sulfonyl)phenyl)piperidin-4-yl)methyl)-2,6-dimethylpiperazin-1-yl)-1-methyl-1H-indazol-3-yl)dihydropyrimidine-2,4(1H,3H)-dione], the IC50 is 1 to 100 nM. The same measure for `Cn1c(=O)n(C2CCC(=O)NC2=O)c2cccc(C3CCN(Cc4cccc(S(=O)(=O)N5CCC(Nc6ncc(OC(F)F)cn6)CC5)c4)CC3)c21` (stereo not drawn) [Example 128, 3-(4-(1-(3-((4-((5-(difluoromethoxy)-pyrimidin-2-yl)amino)piperidin-1-yl)sulfonyl)benzyl)piperidin-4-yl)-3-methyl-2-oxo-2,3-dihydro-1H-benzo[d]imidazol-1-yl)piperidine-2,6-dione]: 1 to 100 nM; for `Cn1nc(N2CCC(=O)NC2=O)c2ccc(C3CCN(CC4CN(c5cccc(S(=O)(=O)N6CCC(Nc7ncc(Cl)cn7)CC6)c5)C4)CC3)cc21` [Example 129, 1-(6-(1-((1-(3-((4-((5-chloropyrimidin-2-yl)amino)piperidin-1-yl)sulfonyl)phenyl)-azetidin-3-yl)methyl)piperidin-4-yl)-1-methyl-1H-indazol-3-yl)dihydropyrimidine-2,4(1H,3H)-dione]: 1 to 100 nM; for `Cn1nc(N2CCC(=O)NC2=O)c2ccc(C3CCN(Cc4cncc(S(=O)(=O)N5CCC(Nc6ncc(C(F)(F)F)cn6)CC5)c4)CC3)cc21` [Example 130, 1-(1-methyl-6-(1-((5-((4-((5-(trifluoro-methyl)pyrimidin-2-yl)amino)piperidin-1-yl)sulfonyl)pyridin-3-yl)methyl)piperidin-4-yl)-1H-indazol-3-yl)dihydropyrimidine-2,4(1H,3H)-dione]: 1 to 100 nM. With `Cn1nc(N2CCC(=O)NC2=O)c2ccc(C3CCN(Cc4cnn(-c5cccc(S(=O)(=O)N6CCC(Nc7ncc(Cl)cn7)CC6)c5)c4)CC3)cc21` [Example 131, 1-(6-(1-((1-(3-((4-((5-chloropyrimidin-2-yl)amino)piperidin-1-yl)sulfonyl)phenyl)-1H-pyrazol-4-yl)methyl)piperidin-4-yl)-1-methyl-1H-indazol-3-yl)dihydropyrimidine-2,4(1H,3H)-dione], the IC50 is 1 to 100 nM. The same measure for `Cn1nc(N2CCC(=O)NC2=O)c2ccc(C3CCN(CC4CC5(C4)CN(c4cccc(S(=O)(=O)N6CCC(Nc7ncc(Cl)cn7)CC6)c4)C5)CC3)cc21` [Example 132, 1-(6-(1-((2-(3-((4-((5-chloropyrimidin-2-yl)amino)piperidin-1-yl)sulfonyl)phenyl)-2-azaspiro[3.3]heptan-6-yl)methyl)piperidin-4-yl)-1-methyl-1H-indazol-3-yl)dihydropyrimidine-2,4(1H,3H)-dione]: 1 to 100 nM; for `O=C1CCC(Nc2ccc(N3CCN(CC4CCN(c5cccc(S(=O)(=O)N6CCC(Nc7ncc(C(F)(F)F)cn7)CC6)c5)CC4)CC3)cc2)C(=O)N1` (stereo not drawn) [Example 133, 3-((4-(4-((1-(3-((4-((5-(trifluoromethyl)-pyrimidin-2-yl)amino)piperidin-1-yl)sulfonyl)phenyl)piperidin-4-yl)methyl)piperazin-1-yl)phenyl)amino)-piperidine-2,6-dione]: 100 to 500 nM.

Regarding `Cn1nc(N2CCC(=O)NC2=O)c2ccc(C3=CCN(CC4CCN(c5cccc(S(=O)(=O)N6CCC(Nc7ncc(Cl)cn7)CC6)c5)CC4)CC3)cc21` [Example 134, 1-(6-(1-((1-(3-((4-((5-chloropyrimidin-2-yl)amino)piperidin-1-yl)sulfonyl)phenyl)-piperidin-4-yl)methyl)-1,2,3,6-tetrahydropyridin-4-yl)-1-methyl-1H-indazol-3-yl)dihydropyrimidine-2,4(1H,3H)-dione], the IC50 was in the range of 100 to 500 nM. Take `Cn1nc(N2CCC(=O)NC2=O)c2ccc(C3CCN(C[C@@H]4CCN(c5cccc(S(=O)(=O)N6CCC(Nc7ncc(Cl)cn7)CC6)c5)C4)CC3)cc21` [Example 135, (S)-1-(6-(1-((1-(3-((4-((5-chloropyrimidin-2-yl)amino)piperidin-1-yl)sulfonyl)phenyl)-pyrrolidin-3-yl)methyl)piperidin-4-yl)-1-methyl-1H-indazol-3-yl)dihydropyrimidine-2,4(1H,3H)-dione]: the IC50 is 100 to 500 nM. For `Cn1nc(N2CCC(=O)NC2=O)c2ccc(C3CCN(CC4CCCN(c5cccc(S(=O)(=O)N6CCC(Nc7ncc(Cl)cn7)CC6)c5)CC4)CC3)cc21` (stereo not drawn) [Example 136, 1-(6-(1-((1-(3-((4-((5-chloropyrimidin-2-yl)amino)piperidin-1-yl)sulfonyl)phenyl)-azepan-4-yl)methyl)piperidin-4-yl)-1-methyl-1H-indazol-3-yl)dihydropyrimidine-2,4(1H,3H)-dione], the IC50 is 100 to 500 nM.
